Measurements: EP2329817A1, “Retinoic acid receptor antagonists, miR-10a inhibitors and inhibitors of HOXB1 or HOXB3 repressors for treating pancreatic cancer” (Ernst-Moritz-Arndt-Universität Greifswald, priority 2009, dated 2011)

Tests used:
RARα = target: T1, RARα (Homo sapiens, UniProt P10276); details: literature references 14, 15; read-out: 50% inhibition; cited from earlier work
T1 sequence (P10276 1-462): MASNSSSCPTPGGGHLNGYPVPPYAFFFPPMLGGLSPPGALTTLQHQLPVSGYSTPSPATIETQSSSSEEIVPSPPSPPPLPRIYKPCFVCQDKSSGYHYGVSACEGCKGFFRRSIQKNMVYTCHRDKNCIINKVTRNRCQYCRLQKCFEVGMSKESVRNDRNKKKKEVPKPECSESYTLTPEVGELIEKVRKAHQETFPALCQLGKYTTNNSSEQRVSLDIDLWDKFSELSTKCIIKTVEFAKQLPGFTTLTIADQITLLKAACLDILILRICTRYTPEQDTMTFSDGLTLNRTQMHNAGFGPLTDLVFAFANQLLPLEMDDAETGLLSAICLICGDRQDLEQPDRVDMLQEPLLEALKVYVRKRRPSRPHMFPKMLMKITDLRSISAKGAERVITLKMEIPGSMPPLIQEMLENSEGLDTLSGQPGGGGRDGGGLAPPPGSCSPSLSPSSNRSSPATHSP

HOXB3 = assay: RT-PCR / RT-qPCR of HOXB3 expression; format: cell-based, human; details: quantitative PCR
Method: (§1) Northern Blot analysis was performed essentially according to Kloosterman et al. ^16 using a miR-10 LNA probe ([…]) (Exiqon, Denmark). We had previously described protocols for RT-PCR^17 and RT-qPCR^18 . Primers for the RT-PCR were: HOXB1: sc-38686 and HOXB3: sc-38690-PR and RARα: sc-29465-PR all from Santa Cruz Biotechnology. For quantitative RT-PCR we used 100 ng of total RNA and the Roche Master SYBR Green kit. Single-band amplification was verified by melting curve dissociation protocols. A standard curve for β-actin using 1, 5, 10, 100, and 500 ng of total RNA was used for normalization. RT-qPCR primers for HOXB1 were: forward 5'-[…]-3' and reverse 5'-[…]-3' and for HOXB3: forward 5'-[…]-3' and reverse 5'-[…]-3'.
(§2) PaTu-S and PaTu-T cells were treated (24h) as indicated with specific siRNAs against HOXB1 (B1) and HOXB3 (B3) (Co: DMSO control) in the presence or absence of Ro-41-5253. Migration of these cells was analysed after transplantation into zebrafish embryos (see Table 1) and downregulation of HOXB1 and HOXB3 expression in these cells was confirmed by PCR analysis (A).
(§3) A similar regulation is seen following incubation with miR-10a Morpholinos or with miR-10a siRNAs (right side; Control: control Morpholino or control-siRNA) (B). Results are normalized to β-actin expression and similar results were obtained in three independent experiments. […]

miR-10a [1] = assay: cells; format: cell-based, human
Method: Northern Blot analysis was performed essentially according to Kloosterman et al. ^16 using a miR-10 LNA probe ([…]) (Exiqon, Denmark). We had previously described protocols for RT-PCR^17 and RT-qPCR^18 . Primers for the RT-PCR were: HOXB1: sc-38686 and HOXB3: sc-38690-PR and RARα: sc-29465-PR all from Santa Cruz Biotechnology. For quantitative RT-PCR we used 100 ng of total RNA and the Roche Master SYBR Green kit. Single-band amplification was verified by melting curve dissociation protocols. A standard curve for β-actin using 1, 5, 10, 100, and 500 ng of total RNA was used for normalization. […]
PaTu-T cells were incubated as indicated, with DMSO (Co), 200 nM Ro-41-5253 (RARα inh), control-Morpholino, miR-10a Morpholino, miR-196 siRNA (Co), or RARα siRNA and PaTu-S cells were co-incubated with 1 µM retinoic acid (RA) and control siRNA, RARα siRNA or Ro-415253 and miR-10a expression was evaluated by Northern blot analysis (A). […] The effect of Ro-415253 on cell migration was analysed in an in vitro migration assay in PaTu-T cells. […]
PaTu-T cells were incubated for 24h with indicated concentrations of Ro-415253 and miR-10a expression was evaluated by northern blot analysis (upper panel). […] Patu-S cells were incubated tor 24h with indicated concentrations of ATRA and miR-10a expression was evaluated by northern blot analysis (upper panel). […]

miR-10a [2] = assay: Northern blot of miR-10a expression in PaTu-T cells (densitometry); format: cell-based, human; details: for miR-10a expression: result in words
Method: as §1
PaTu-T cells were incubated as indicated, with DMSO (Co), 200 nM Ro-41-5253 (RARα inh), control-Morpholino, miR-10a Morpholino, miR-196 siRNA (Co), or RARα siRNA and PaTu-S cells were co-incubated with 1 µM retinoic acid (RA) and control siRNA, RARα siRNA or Ro-415253 and miR-10a expression was evaluated by Northern blot analysis (A). […] RT-PCR control of GAPDH was used as a loading control (not shown). Dose response curves for RA and the RARα antagonist and the RT-PCR control for RARα siRNA treatment are shown in Supplemental Fig. 1. The effect of Ro-415253 on cell migration was analysed in an in vitro migration assay in PaTu-T cells. […] An actin re-blot confirmed equal loading.
PaTu-T cells were incubated for 24h with indicated concentrations of Ro-415253 and miR-10a expression was evaluated by northern blot analysis (upper panel). GAPDH loading control is shown in the lower panel. […] Patu-S cells were incubated tor 24h with indicated concentrations of ATRA and miR-10a expression was evaluated by northern blot analysis (upper panel). GAPDH loading control is shown in the lower panel. (C) Specific "knockdown" of RARα in PaTu-Tcells by RARα siRNA. RT-PCR from total RNA of RARα or control siRNA (Co) treated PaTu-T cells (24h) confirms specific knockdown of RARa. RT-PCR of GAPDH control is shown in the lower panel.

HOXB1 = assay: RT-PCR / RT-qPCR of HOXB1 expression; format: cell-based, human; details: quantitative PCR
Method: as §1, §2, §3

Structure (SMILES): CCCCCCCOc1cc2c(cc1/C(C)=C/c1ccc(C(=O)O)cc1)C(C)(C)CCS2(=O)=O [Ro-41-5253, Benzoic acid, 4-(2-(7-(heptyloxy)-3,4-dihydro-4,4-dimethyl-2H-1-benzothiopyran-6-yl)-1-propenyl)-, S,S-dioxide, (E)]
- IC50 (RARα): 60 nM
- HOXB3 expression (HOXB3; PaTu-T cells): increased
- upregulation of miR-10a expression by retinoic acid (miR-10a [1]; PaTu-S cells co-incubated with 1 µM retinoic acid): completely blocked
- reduction of miR-10a expression (miR-10a [2]; densitometric analysis, Ro-41-5253 at 200 nM): 9.4 fold
- miR-10a expression (miR-10a [2]): significant decrease
- miR-10a expression (miR-10a [2]; listed as Ro-415253): Dose dependent repression
- HOXB1 expression (HOXB1; PaTu-T cells): increased

Structure (SMILES): CC1=C(/C=C/C(C)=C/C=C/C(C)=C/C(=O)O)C(C)(C)CCC1 [RA, all trans retinoic acid]
- HOXB3 expression (HOXB3; PaTu-S cells): decreased
- fold induction at 1 µM (miR-10a [1]; Homo sapiens, 24 h, read-out: miR-10a expression upregulated): 7.2
- HOXB1 expression (HOXB1; PaTu-S cells): decreased
